This passage reports IC50 results from patent US20220073496A1, “NOVEL QUINOLINE DERIVATIVE INHIBITOR” (Nanjing Transthera Biosciences Co., Ltd., priority 2018, published 2022).

Common to all, as to type: biochemical
Common to all, as to conditions: 10 μM [γ-33P]-ATP, 40 minutes, room temperature

For one test, the target named is T1, Mer (h) (Homo sapiens, UniProt Q12866).
T1 construct: purchased
T1 sequence (Q12866 21-999): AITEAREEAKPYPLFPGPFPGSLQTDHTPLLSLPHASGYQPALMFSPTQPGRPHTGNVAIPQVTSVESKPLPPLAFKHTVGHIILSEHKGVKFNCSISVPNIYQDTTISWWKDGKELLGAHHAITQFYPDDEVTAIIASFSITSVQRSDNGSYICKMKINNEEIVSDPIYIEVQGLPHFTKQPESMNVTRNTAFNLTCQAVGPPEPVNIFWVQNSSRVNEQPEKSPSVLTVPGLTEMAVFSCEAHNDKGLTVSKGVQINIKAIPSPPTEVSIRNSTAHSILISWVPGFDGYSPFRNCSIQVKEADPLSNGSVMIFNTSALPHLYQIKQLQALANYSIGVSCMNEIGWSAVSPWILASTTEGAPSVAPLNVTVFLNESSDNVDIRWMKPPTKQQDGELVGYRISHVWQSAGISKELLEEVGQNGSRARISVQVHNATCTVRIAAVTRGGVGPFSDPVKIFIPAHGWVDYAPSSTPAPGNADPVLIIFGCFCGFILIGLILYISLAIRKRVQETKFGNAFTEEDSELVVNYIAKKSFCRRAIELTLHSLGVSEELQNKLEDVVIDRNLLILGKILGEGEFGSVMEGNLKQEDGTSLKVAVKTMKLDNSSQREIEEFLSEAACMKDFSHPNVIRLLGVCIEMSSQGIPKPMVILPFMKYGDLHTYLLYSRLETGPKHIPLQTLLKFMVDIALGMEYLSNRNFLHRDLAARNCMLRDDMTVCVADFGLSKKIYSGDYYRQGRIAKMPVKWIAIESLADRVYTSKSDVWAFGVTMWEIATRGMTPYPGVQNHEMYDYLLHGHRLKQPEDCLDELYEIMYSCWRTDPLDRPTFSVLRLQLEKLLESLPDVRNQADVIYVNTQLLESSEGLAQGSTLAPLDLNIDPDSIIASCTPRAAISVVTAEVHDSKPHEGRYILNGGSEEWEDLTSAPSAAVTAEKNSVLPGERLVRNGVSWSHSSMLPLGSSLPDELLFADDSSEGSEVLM
The test can be described thus: Enzymatic activity test, Mer (h). How it is done:
(§1) Assay 3: Enzymatic Activity Test of the Compounds of the Present Invention
(§2) Test substances: the compounds of the present invention, wherein the structures and preparations thereof were as described above.
(§3) (1) Preparation of the Compound Stock Solution
(§4) The compound was dissolved in 100% DMSO to prepare a stock solution with a maximum concentration of 500 μM.
(§5) (2) Preparation of the Compound Working Solution
(§6) The compound stock solution was diluted to final concentrations of 500, 150, 50, 15, 5, 1.5, 0.5, 0.15 and 0.05 μM to become the compound working solutions (50×).
(§7) (3) Preparation of Different Enzyme Reaction Solutions
The Mer (h) enzyme was dissolved in 8 mM MOPS (pH 7.0), 0.2 mM EDTA, 30 mM NaCl, and 250 μM GGMEDIYFEFIVIGGKKK to prepare an enzyme solution having a final concentration of 3.1 nM. The enzymatic reaction was activated by using 10 mM magnesium acetate and 10 μM [γ-^33P]-ATP to form an Mg/ATP mixed solution.
(§8) In a 384-well plate, the compound working solution was added to final concentrations of 10000, 3000, 1000, 300, 100, 30, 10, 3, and 1 nM. Then different enzyme reaction solutions prepared according to the above conditions were added. The incubation was carried out for 40 minutes at room temperature. The test was terminated by the addition of a 0.5% phosphoric acid solution. 10 μL of the reaction solution was taken and dropped to the P30 filter paper. The filter paper was washed 4 times with 0.425% phosphoric acid solution and once with methanol, and then placed on a scintillation counter. The […] IC50 values were calculated using GraphPad 5.0 software.

In another test the target is T2, Axl (h) (Homo sapiens, UniProt P30530).
T2 construct: purchased
T2 sequence (P30530 26-894): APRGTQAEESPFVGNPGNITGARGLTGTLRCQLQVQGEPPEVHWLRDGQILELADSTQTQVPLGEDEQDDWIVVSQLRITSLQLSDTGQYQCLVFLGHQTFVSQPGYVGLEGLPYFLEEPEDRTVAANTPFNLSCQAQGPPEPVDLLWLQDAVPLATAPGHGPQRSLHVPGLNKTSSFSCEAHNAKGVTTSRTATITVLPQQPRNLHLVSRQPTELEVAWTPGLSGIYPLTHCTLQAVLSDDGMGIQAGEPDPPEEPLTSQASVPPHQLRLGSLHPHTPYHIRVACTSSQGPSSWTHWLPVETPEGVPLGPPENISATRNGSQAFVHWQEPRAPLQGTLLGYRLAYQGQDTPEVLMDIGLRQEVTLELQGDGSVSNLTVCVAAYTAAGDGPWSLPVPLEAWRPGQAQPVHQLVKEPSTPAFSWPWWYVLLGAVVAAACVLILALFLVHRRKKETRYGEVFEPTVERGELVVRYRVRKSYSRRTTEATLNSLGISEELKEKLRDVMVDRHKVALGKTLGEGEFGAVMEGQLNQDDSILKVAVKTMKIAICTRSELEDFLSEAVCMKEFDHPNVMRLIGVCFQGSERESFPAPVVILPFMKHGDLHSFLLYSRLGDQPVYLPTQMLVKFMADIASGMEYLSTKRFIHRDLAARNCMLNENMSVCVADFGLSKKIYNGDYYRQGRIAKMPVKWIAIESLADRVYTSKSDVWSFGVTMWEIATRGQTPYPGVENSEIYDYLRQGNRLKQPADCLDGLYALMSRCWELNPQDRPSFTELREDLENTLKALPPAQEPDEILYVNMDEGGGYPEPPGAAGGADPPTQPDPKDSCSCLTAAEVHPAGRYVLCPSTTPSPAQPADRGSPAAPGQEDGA
The test can be described thus: Enzymatic activity test, Axl (h). The protocol:
as §1, §2, §3, §4, §5, §6, §7
The Axl (h) enzyme was dissolved in 8 mM MOPS (pH 7.0), 0.2 mM EDTA, and 250 μM KKSRGDYMTMQIG to prepare an enzyme solution having a final concentration of 1.7 nM. The enzymatic reaction was activated by using 10 mM magnesium acetate and 10 μM [γ-^33P]-ATP to form an Mg/ATP mixed solution.
as §8

The next test addresses T3, CSF1R (h) (Homo sapiens, UniProt P07333).
T3 construct: purchased
The test can be described thus: Enzymatic activity test, CSF1R (h). How it is done:
as §1, §2, §3, §4, §5, §6, §7
The enzymatic reaction was activated by using 10 mM magnesium acetate and 10 μM [γ-^33P]-ATP to form an Mg/ATP mixed solution.
In a 384-well plate, the compound working solution was added to final concentrations of 10000, 3000, 1000, 300, 100, 30, 10, 3, and 1 nM. Then different enzyme reaction solutions prepared according to the above conditions were added. The incubation was carried out for 40 minutes at room temperature. The test was terminated by the addition of a 0.5% phosphoric acid solution. 10 μL of the reaction solution was taken and dropped to the P30 filter paper. […] The grayscale analysis of the results was performed using Image J software and the IC50 values were calculated using GraphPad 5.0 software.

T3 sequence (P07333 20-972): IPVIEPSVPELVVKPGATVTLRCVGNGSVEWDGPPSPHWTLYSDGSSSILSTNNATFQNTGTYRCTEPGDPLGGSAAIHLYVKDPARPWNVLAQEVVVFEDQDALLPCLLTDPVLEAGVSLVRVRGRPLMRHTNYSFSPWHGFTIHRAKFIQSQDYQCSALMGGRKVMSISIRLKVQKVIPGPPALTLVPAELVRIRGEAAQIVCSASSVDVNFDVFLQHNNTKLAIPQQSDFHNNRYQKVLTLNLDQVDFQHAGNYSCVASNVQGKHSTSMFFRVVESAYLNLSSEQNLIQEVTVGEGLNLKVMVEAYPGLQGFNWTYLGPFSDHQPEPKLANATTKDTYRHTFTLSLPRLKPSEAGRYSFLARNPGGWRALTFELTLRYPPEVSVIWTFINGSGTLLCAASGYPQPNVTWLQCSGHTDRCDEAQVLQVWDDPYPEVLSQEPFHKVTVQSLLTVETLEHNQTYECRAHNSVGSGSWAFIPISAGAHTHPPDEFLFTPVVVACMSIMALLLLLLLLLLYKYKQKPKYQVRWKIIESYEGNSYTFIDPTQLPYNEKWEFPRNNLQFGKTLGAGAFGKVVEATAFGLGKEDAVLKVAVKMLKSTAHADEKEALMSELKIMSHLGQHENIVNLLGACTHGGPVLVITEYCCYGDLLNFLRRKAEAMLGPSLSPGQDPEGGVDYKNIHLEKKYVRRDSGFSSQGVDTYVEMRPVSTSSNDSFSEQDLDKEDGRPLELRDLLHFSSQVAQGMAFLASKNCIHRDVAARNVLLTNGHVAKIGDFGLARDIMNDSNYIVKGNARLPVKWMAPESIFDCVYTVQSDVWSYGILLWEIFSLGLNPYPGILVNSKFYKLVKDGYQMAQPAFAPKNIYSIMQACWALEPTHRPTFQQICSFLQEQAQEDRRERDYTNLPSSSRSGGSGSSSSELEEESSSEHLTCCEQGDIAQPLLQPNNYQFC

Regarding `COc1cc2nccc(Oc3ccc(NC(=O)c4cn(C(C)C)cc(-c5ccc(C)cc5)c4=O)nc3)c2cc1OC` [Compound 1, N-(5-((6,7-dimethoxyquinolin-4-yl)oxy)pyridin-2-yl)-1-isopropyl-4-oxo-5-p-tolyl-1,4-dihydropyridin-3-carboxamide], the half-inhibitory concentration (IC50) (commonly the concentration needed to halve the response being measured) against Mer (h) came to 2 nM; at Axl (h), 17 nM; on CSF1R (h) it was 200 nM.

With `COc1cc2nccc(Oc3cnc(NC(=O)c4cn(C(C)C)nc(-c5ccc(F)cc5)c4=O)nc3)c2cc1OC` [Compound 39, N-(5-((6,7-dimethoxyquinolin-4-yl)oxy)pyrimidine-2-yl)-6-(4-fluorophenyl)-2-isopropyl-5-oxo-2,5-dihydropyridazine-4-carboxamide], the IC50 on Mer (h) came out at 3 nM; on Axl (h), 4 nM; on CSF1R (h), 34 nM.

In the case of `COc1cc2nccc(Oc3ccc(NC(=O)c4cn(C(C)C)cc(-c5ccc(F)cc5)c4=O)nc3)c2cc1OC` [Compound 14, N-(5-((6,7-dimethoxyquinolin-4-yl)oxy)pyridin-2-yl)-5-(4-fluorophenyl)-1-isopropyl-4-oxo-1,4-dihydropyridin-3-carboxamide], the values for the IC50 at Mer (h), at Axl (h) and against CSF1R (h) were 2 nM, 8 nM and 55 nM, respectively.
